The results in this text go back to paper PMC12775819, “Optimizing PSMA-617-based inhibitors through charged linker modifications: Insights into structure-activity relationships” (Theranostics, 2026).

One series can be described thus: in vivo. The note with it: male, BALB/c nu/nu, mouse, iv, 500 pmol, total radioactivity.
Series [1] in a line: Partition coefficient (logD), n-octanol/PBS pH 7.4. The series is classed as physicochemical. The following applies: 68Ga-labeled compounds, mean ± SD, read-out: Partition Coefficient [logDoctanol/PBS]. The procedure:
To determine the lipophilicity expressed as distribution coefficient (logD), a two-phase system of n-octanol (500 µl) and phosphate buffered saline (PBS) (490 µl) at pH 7.4 was used (n = 4). Compounds were radiolabeled with [^68Ga]Ga^3+ and the mixture diluted to a concentration of 0.25 µM in PBS. 10 µl of the 0.25 µM dilution were added to the n-octanol / PBS mixture. After extensive mixing, the 2-phase system was centrifuged for 10 min at 14,000 rpm and 4 °C. Two samples from each phase (100 µl) were taken and measured in a γ-gamma counter (PerkinElmer, Waltham, USA). […] The data is presented as the mean value with the standard deviation (SD).

In series [2] the test system is PSMA-positive LNCaP cells. The series is described as follows: Surface binding and internalization of 68Ga-labeled compounds. Type of series: cell-based, human. The following applies: for Internalization Block / Surface Binding Block / Internalization / Surface Binding: 30 nM, 45 min, 37 °C; for Internalization Block / Surface Binding Block: blocked with 2-PMPA 500 µM; for Internalization / Surface Binding: unblocked; for Specific Internalization / Specific Surface Binding: difference of unblocked and blocked values. The procedure: The PSMA-positive human cell line LNCaP (human lymph node carcinoma of the prostate; ATCC CRL-1740) was cultivated adherently at 37 °C and humidified 5% CO2 with RPMI-1640 (Thermo Fisher Scientific, Germany) supplemented with 10% fetal bovine serum (Sigma-Aldrich, Germany), 1% sodium pyruvate (Life Technologies, Germany) and 1% penicillin/[…] (Thermo Fisher Scientific, Germany). A mixture of trypsin/ethylenediaminetetraacetic acid (0.05% / 0.02%; Thermo Fisher Scientific, Germany) was used for cell harvesting (last authentication: April 2024).
Internalization assays were performed on poly-L-lysine coated 24-well cell culture plates. The day before the experiment, LNCaP cells (10^5 cells/well) were harvested and seeded to the wells. The cells were incubated with the ^68Ga-labeled compounds (250 µl, 30 nM, diluted in RPMI medium) for 45 min at 37 °C. […] The medium was then removed and the cells washed with ice-cold PBS buffer (3 × 1 ml). To remove surface bound compounds, ice-cold glycine buffer (2 × 0.5 ml, 50 mM, pH 2.8) was added to the wells and collected after 5 min in a combined fraction. After washing once with PBS (1 ml), NaOH (0.5 ml, 0.3 M) was added to the cells for lysation. Collected surface-bound, internalized fractions and standards from the stock solutions (25 µl) were measured in a γ-counter. Data was normalized and presented as percentage of the initially added radioactivity bound to 10^5 cells [%IA/10^5 cells].

Series [3] can be described thus: Static small-animal PET imaging 1 h and 2 h p.i. The following applies: male, BALB/c nu/nu, mouse, iv, 500 pmol, total radioactivity.

Non-standard residues stand in square brackets, D forms with d. Residues, ends and D or L forms follow the SMILES beside them. *: point of attachment. DOTA = O=C(O)CN1CCN(CC(=O)O)CCN(CC(=O)*)CCN(CC(=O)O)CC1; EuK = O=C(O)CC[C@H](NC(=O)N[C@@H](CCCCN*)C(=O)O)C(=O)O; 2Nal = N[C@@H](Cc1ccc2ccccc2c1)C(=O)O; Trx = NC[C@H]1CC[C@H](C(=O)O)CC1

Consider `O=C(O)CC[C@H](NC(=O)N[C@@H](CCCCNC(=O)[C@H](Cc1c[nH]cn1)NC(=O)[C@H](CCC(=O)O)NC(=O)[C@H](Cc1c[nH]cn1)NC(=O)[C@H](CCC(=O)O)NC(=O)[C@H](Cc1c[nH]cn1)NC(=O)[C@H](CCC(=O)O)NC(=O)[C@H](Cc1ccc2ccccc2c1)NC(=O)[C@H]1CC[C@H](CNC(=O)CN2CCN(CC(=O)O)CCN(CC(=O)O)CCN(CC(=O)O)CC2)CC1)C(=O)O)C(=O)O` [PS1, EuK-(HE)3-NaI-ChX-DOTA] ({DOTA-Trx}-[2Nal]EHEHEH-EuK), for which, in “in vivo” (SUV kidneys), the SUV at 1 h is 1.71 ± 0.2 SUV and the SUV at 2 h came out at 1.32 ± 0.15 SUV. Further, in the series “in vivo” (SUV muscle), the SUV at 1 h worked out at 0.09 ± 0.01 SUV and the SUV at 2 h came to 0.08 ± 0.02 SUV. Further, in the series “in vivo” (SUV tumor), the SUV at 1 h was determined as 0.43 ± 0.06 SUV and the SUV at 2 h came to 0.3 ± 0.11 SUV. Also, the logD in series [1] was -3.5 ± 0.2. Also, in series [2], the “Internalization Block” value was 0.314 ± 0.024 %Binding / %Internalization, the “Surface Binding Block” value is given as 0.069 ± 0.012 %Binding / %Internalization, the Internalization is 0.66 ± 0.14 %Binding / %Internalization and the “Surface Binding” value is listed as 1.15 ± 0.17 %Binding / %Internalization. Besides, in series [2], the “Specific Internalization” value is recorded as 0.35 ± 0.3 %Binding / %Internalization and the “Specific Surface Binding” value is reported as 1.09 ± 0.34 %Binding / %Internalization.

As to `O=C(O)CC[C@H](NC(=O)N[C@@H](CCCCNC(=O)[C@H](Cc1c[nH]cn1)NC(=O)[C@H](CCC(=O)O)NC(=O)[C@H](Cc1c[nH]cn1)NC(=O)[C@H](CCC(=O)O)NC(=O)[C@H](Cc1c[nH]cn1)NC(=O)[C@H](CCC(=O)O)NC(=O)[C@H](Cc1ccc2ccccc2c1)NC(=O)[C@H]1CC[C@H](CNC(=O)CN2CCN(CC(=O)O)CCN(CC(=O)O)CCN(CC(=O)O)CC2)CC1)C(=O)O)C(=O)O` [[^68Ga]Ga-PS1, metal not drawn] ({DOTA-Trx}-[2Nal]EHEHEH-EuK), in series [3] (tumor (LNCaP xenograft), SUV tumor, 68Ga-labeled, 0.5 nmol i.v., static PET 1 h p.i., n = 1, SD from VOIs), the SUV at 1 h came out at 0.43 ± 0.06 SUV. Also, the SUV at 2 h in series [3] (tumor (LNCaP xenograft), SUV tumor, 68Ga-labeled, 0.5 nmol i.v., static PET 2 h p.i., n = 1, SD from VOIs) is 0.3 ± 0.11 SUV.

For `O=C(O)CC[C@H](NC(=O)N[C@@H](CCCCNC(=O)[C@H](Cc1ccc2ccccc2c1)NC(=O)[C@H](Cc1c[nH]cn1)NC(=O)[C@H](CCC(=O)O)NC(=O)[C@H](Cc1c[nH]cn1)NC(=O)[C@H](CCC(=O)O)NC(=O)[C@H](Cc1c[nH]cn1)NC(=O)[C@H](CCC(=O)O)NC(=O)[C@H]1CC[C@H](CNC(=O)CN2CCN(CC(=O)O)CCN(CC(=O)O)CCN(CC(=O)O)CC2)CC1)C(=O)O)C(=O)O` [PS2, EuK-NaI-(HE)3-ChX-DOTA] ({DOTA-Trx}-EHEHEH[2Nal]-EuK), in the series “in vivo” (SUV kidneys), the SUV at 1 h was 1.64 ± 0.1 SUV and the SUV at 2 h was determined as 1.01 ± 0.09 SUV. In addition, in “in vivo” (SUV muscle), the SUV at 1 h is 0.11 ± 0.02 SUV and the SUV at 2 h came to 0.11 ± 0.01 SUV. In addition, in the series “in vivo” (SUV tumor), the SUV at 1 h is 0.78 ± 0.05 SUV and the SUV at 2 h turned out to be 0.74 ± 0.06 SUV. Also, the logD in series [1] was -3.4 ± 0.3. In addition, in series [2], the “Internalization Block” value is 0.21 ± 0.036 %Binding / %Internalization, the “Surface Binding Block” value is 0.183 ± 0.024 %Binding / %Internalization, the Internalization is 0.55 ± 0.04 %Binding / %Internalization and the “Surface Binding” value is 1.01 ± 0.14 %Binding / %Internalization. Further, in series [2], the “Specific Internalization” value was 0.34 ± 0.24 %Binding / %Internalization and the “Specific Surface Binding” value was 0.83 ± 0.27 %Binding / %Internalization.

On to `O=C(O)CC[C@H](NC(=O)N[C@@H](CCCCNC(=O)[C@H](Cc1ccc2ccccc2c1)NC(=O)[C@H](Cc1c[nH]cn1)NC(=O)[C@H](CCC(=O)O)NC(=O)[C@H](Cc1c[nH]cn1)NC(=O)[C@H](CCC(=O)O)NC(=O)[C@H](Cc1c[nH]cn1)NC(=O)[C@H](CCC(=O)O)NC(=O)[C@H]1CC[C@H](CNC(=O)CN2CCN(CC(=O)O)CCN(CC(=O)O)CCN(CC(=O)O)CC2)CC1)C(=O)O)C(=O)O` [[^68Ga]Ga-PS2, metal not drawn] ({DOTA-Trx}-EHEHEH[2Nal]-EuK), for which, in series [3] (tumor / kidney), the tissue to tissue ratio at 1 h was 0.47 ± 0.14 and the tissue to tissue ratio at 2 h was determined as 0.73 ± 0.14.

As for `O=C(O)CC[C@H](NC(=O)N[C@@H](CCCCNC(=O)[C@H](Cc1ccc2ccccc2c1)NC(=O)[C@H]1CC[C@H](CNC(=O)[C@H](Cc2c[nH]cn2)NC(=O)[C@H](Cc2c[nH]cn2)NC(=O)[C@H](Cc2c[nH]cn2)NC(=O)CN2CCN(CC(=O)O)CCN(CC(=O)O)CCN(CC(=O)O)CC2)CC1)C(=O)O)C(=O)O` [PS11, EuK-NaI-ChX-H3-DOTA] ({DOTA}-HHH[Trx][2Nal]-EuK), the SUV at 1 h in “in vivo” (SUV kidneys) is 1.24 ± 0.08 SUV; in the series “in vivo” (SUV muscle) it was 0.11 ± 0.02 SUV; in “in vivo” (SUV tumor), 0.82 ± 0.07 SUV. For the same compound, the SUV at 2 h in “in vivo” (SUV kidneys) was 0.77 ± 0.13 SUV; in “in vivo” (SUV muscle) it was 0.1 ± 0.03 SUV; in “in vivo” (SUV tumor), 0.88 ± 0.09 SUV. Also, the logD in series [1] was -3.6 ± 0.1.

In the case of `O=C(O)CC[C@H](NC(=O)N[C@@H](CCCCNC(=O)[C@H](Cc1ccc2ccccc2c1)NC(=O)[C@H]1CC[C@H](CNC(=O)[C@H](CCC(=O)O)NC(=O)[C@H](Cc2c[nH]cn2)NC(=O)[C@H](CCC(=O)O)NC(=O)[C@H](Cc2c[nH]cn2)NC(=O)[C@H](CCC(=O)O)NC(=O)[C@H](Cc2c[nH]cn2)NC(=O)CN2CCN(CC(=O)O)CCN(CC(=O)O)CCN(CC(=O)O)CC2)CC1)C(=O)O)C(=O)O` [PS4, EuK-NaI-ChX-(EH)3-DOTA] ({DOTA}-HEHEHE[Trx][2Nal]-EuK), in “in vivo” (SUV kidneys), the SUV at 1 h is 3.81 ± 0.15 SUV and the SUV at 2 h turned out to be 2.77 ± 0.2 SUV. In “in vivo” (SUV muscle), the SUV at 1 h was determined as 0.11 ± 0.02 SUV and the SUV at 2 h is 0.1 ± 0.03 SUV. Further, in the series “in vivo” (SUV tumor), the SUV at 1 h was 1.15 ± 0.04 SUV and the SUV at 2 h was determined as 1.07 ± 0.09 SUV. Also, in series [1], the logD was -3.9 ± 0.3. Also, in series [2], the “Internalization Block” value is on record as 0.149 ± 0.047 %Binding / %Internalization, the “Surface Binding Block” value is 0.080 ± 0.009 %Binding / %Internalization, the Internalization is 0.81 ± 0.29 %Binding / %Internalization and the “Surface Binding” value is 1.43 ± 0.12 %Binding / %Internalization. Moreover, in series [2], the “Specific Internalization” value was 0.66 ± 0.68 %Binding / %Internalization and the “Specific Surface Binding” value is listed as 1.35 ± 0.21 %Binding / %Internalization.
